In patent publication US7932270B2 (Cytokinetics, Inc., priority 2006, dated 2011):
pIC50: −log10 of the molar value.

biological target: T1, chicken gizzard smooth muscle myosin subfragment-1 chemically crosslinked to cardiac or skeletal actin (Gallus gallus, UniProt P10587); test: Smooth muscle myosin ATPase dose response assay (pyruvate kinase/horseradish peroxidase/pyruvate oxidase-coupled, amplex red fluorescence); type: biochemical; conditions: read-out: IC50 Arithmetic Mean
T1 construct: chicken gizzard smooth muscle myosin subfragment-1; from tissue; host or cells: chicken gizzard
T1 sequence (P02607 2-151): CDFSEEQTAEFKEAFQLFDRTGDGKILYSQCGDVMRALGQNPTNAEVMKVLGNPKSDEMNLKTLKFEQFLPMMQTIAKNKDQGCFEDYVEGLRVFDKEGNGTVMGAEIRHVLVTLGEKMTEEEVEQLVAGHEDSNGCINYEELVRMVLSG
T1 sequence (P10587 84-789): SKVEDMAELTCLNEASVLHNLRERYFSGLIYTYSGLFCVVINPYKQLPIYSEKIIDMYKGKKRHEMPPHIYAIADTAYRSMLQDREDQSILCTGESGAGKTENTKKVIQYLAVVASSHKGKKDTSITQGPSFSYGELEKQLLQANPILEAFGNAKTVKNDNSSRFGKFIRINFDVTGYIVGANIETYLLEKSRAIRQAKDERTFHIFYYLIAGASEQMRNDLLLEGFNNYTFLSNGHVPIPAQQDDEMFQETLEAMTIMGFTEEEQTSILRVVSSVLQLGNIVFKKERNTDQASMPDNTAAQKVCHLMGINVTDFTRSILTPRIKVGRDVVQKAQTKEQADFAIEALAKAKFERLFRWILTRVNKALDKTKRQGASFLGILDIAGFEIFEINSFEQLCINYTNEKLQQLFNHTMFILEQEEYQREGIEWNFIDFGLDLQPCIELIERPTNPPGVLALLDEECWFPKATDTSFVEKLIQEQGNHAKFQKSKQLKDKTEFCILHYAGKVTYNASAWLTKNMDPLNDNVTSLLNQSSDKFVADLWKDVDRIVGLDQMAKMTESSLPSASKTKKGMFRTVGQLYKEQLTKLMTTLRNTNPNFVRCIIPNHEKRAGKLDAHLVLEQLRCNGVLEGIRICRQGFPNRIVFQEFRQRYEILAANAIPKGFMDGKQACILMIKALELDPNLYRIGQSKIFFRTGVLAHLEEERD
In short: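 Inhibition is measured in a peroxidase/pyruvate oxidase-linked format at pH 7.00 and 22° C, 0.15 mM ATP final. Myosin input is titrated to a target turnover since active fraction differs between preparations.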

`Cn1cc(-c2nc(NCCc3cccc(F)c3)c(C(=O)NCc3cccnc3CNC(=O)OC(C)(C)C)cc2Cl)cn1` [N-[(2-{[(tert-butoxy)carbonylamino]methyl}(3-pyridyl))methyl](5-chloro-2-{[2-(3-fluorophenyl)ethyl]amino}-6-(1-methylpyrazol-4-yl)(3-pyridyl))carboxamide] and `Cn1cc(-c2nc(NCCc3cccc(F)c3)c(C(=O)NCc3cccnc3CNC(=O)OC(C)(C)C)cc2F)cn1` [N-[(2-{[(tert-butoxy)carbonylamino]methyl}(3-pyridyl))methyl](5-fluoro-2-{[2-(3-fluorophenyl)ethyl]amino}-6-(1-methylpyrazol-4-yl)(3-pyridyl))carboxamide] are within 0.2 log units of each other in pIC50: 6.38 for the first, 6.41 for the second.

`Cn1cc(-c2nc(NCCc3cccc(F)c3)c(C(=O)NCc3cccnc3CNC(=O)OC(C)(C)C)cc2C#N)cn1` [N-[(2-{[(tert-butoxy)carbonylamino]methyl}(3-pyridyl))methyl](5-cyano-2-{[2-(3-fluorophenyl)ethyl]amino}-6-(1-methylpyrazol-4-yl)(3-pyridyl))carboxamide] and `CC(C)(C)OC(=O)NCc1ncccc1CNC(=O)c1cc(C#N)c(-c2cn[nH]c2)nc1NCCc1cccc(F)c1` [N-[(2-{[(tert-butoxy)carbonylamino]methyl}(3-pyridyl))methyl](5-cyano-2-{[2-(3-fluorophenyl)ethyl]amino}-6-pyrazol-4-yl(3-pyridyl))carboxamide] are within 0.2 log units of each other in pIC50: 6.12 for the first, 6.00 for the second.

`CC(C)(C)OC(=O)NCc1ncccc1CNC(=O)c1cc(F)c(-c2ccccn2)nc1NCCc1cccc(F)c1` [N-[(2-{[(tert-butoxy)carbonylamino]methyl}(3-pyridyl))methyl](5-fluoro-2-{[2-(3-fluorophenyl)ethyl]amino}-6-(2-pyridyl)(3-pyridyl))carboxamide] and `CC(C)(C)OC(=O)NCc1ncccc1CNC(=O)c1cc(F)c(-c2ccccc2C#N)nc1NCCc1cccc(F)c1` [N-[(2-{[(tert-butoxy)carbonylamino]methyl}(3-pyridyl))methyl](6-(2-cyanophenyl)-5-fluoro-2-{[2-(3-fluorophenyl)ethyl]amino}(3-pyridyl))carboxamide] are within 0.2 log units of each other in pIC50: 5.44 for the first, 5.27 for the second.

First: CC(C)(C)OC(=O)NCc1ncccc1CNC(=O)c1cc(F)c(-c2cn[nH]c2)nc1NCCc1cccc(F)c1 [N-[(2-{[(tert-butoxy)carbonylamino]methyl}(3-pyridyl))methyl](5-fluoro-2-{[2-(3-fluorophenyl)ethyl]amino}-6-pyrazol-4-yl(3-pyridyl))carboxamide]
Second: Cc1cc(C(=O)NCc2cccnc2CNC(=O)OC(C)(C)C)c(NCCc2cccc(F)c2)nc1-c1ccccc1C#N [N-[(2-{[(tert-butoxy)carbonylamino]methyl}(3-pyridyl))methyl](6-(2-cyanophenyl)-2-{[2-(3-fluorophenyl)ethyl]amino}-5-methyl(3-pyridyl))carboxamide]
The pIC50 of the first is 0.94 log units higher: 6.31 for the first, 5.37 for the second.

Going from `CC(C)(C)OC(=O)NCc1ncccc1CNC(=O)c1ccc(-c2ccccc2C#N)nc1NCCc1cccc(F)c1` [N-[(2-{[(tert-butoxy)carbonylamino]methyl}(3-pyridyl))methyl](6-(2-cyanophenyl)-2-{[2-(3-fluorophenyl)ethyl]amino}(3-pyridyl))carboxamide] to `CC(C)(C)OC(=O)NCc1ccc(CNC(=O)c2ccc(-c3ccccc3C#N)nc2NCCc2cccc(F)c2)nc1` [N-[(5-{[(tert-butoxy)carbonylamino]methyl}(2-pyridyl))methyl](6-(2-cyanophenyl)-2-{[2-(3-fluorophenyl)ethyl]amino}(3-pyridyl))carboxamide], the pIC50 falls from 5.92 to 4.16 (1.76 log units).

Going from `CN[C@H](C)CNC(=O)c1ccc(-c2ccccc2C#N)nc1NCCc1cccc(F)c1` [N-[(2R)-2-(methylamino)propyl](6-(2-cyanophenyl)-2-{[2-(3-fluorophenyl)ethyl]amino}(3-pyridyl))carboxamide] to `CN[C@@H](C)CNC(=O)c1ccc(-c2ccccc2C#N)nc1NCCc1cccc(F)c1` [N-[(2S)-2-(methylamino)propyl](6-(2-cyanophenyl)-2-{[2-(3-fluorophenyl)ethyl]amino}(3-pyridyl))carboxamide], the pIC50 rises from 5.72 to 6.03 (0.31 log units). The second is the more potent here.

First: N#Cc1ccccc1-c1ccc(C(=O)NCc2ccc(F)c(F)c2)c(NCCc2cccc(F)c2)n1 [N-[(3,4-difluorophenyl)methyl](6-(2-cyanophenyl)-2-{[2-(3-fluorophenyl)ethyl]amino}(3-pyridyl))carboxamide]
Second: N#Cc1ccccc1-c1ccc(C(=O)NCc2ccc(N)nc2)c(NCCc2cccc(F)c2)n1 [N-[(6-amino(3-pyridyl))methyl](6-(2-cyanophenyl)-2-{[2-(3-fluorophenyl)ethyl]amino}(3-pyridyl))carboxamide]
The pIC50 of the first is 1.89 log units lower: 5.70 for the first, 7.59 for the second. The second is the more potent here.

First: N#Cc1ccccc1-c1ccc(C(=O)NCc2ccc(N)cn2)c(NCCc2cccc(F)c2)n1 [N-[(5-amino(2-pyridyl))methyl](6-(2-cyanophenyl)-2-{[2-(3-fluorophenyl)ethyl]amino}(3-pyridyl))carboxamide]
Second: N#Cc1ccccc1-c1ccc(C(=O)NCc2cccc(Br)n2)c(NCCc2cccc(F)c2)n1 [N-[(6-bromo(2-pyridyl))methyl](6-(2-cyanophenyl)-2-{[2-(3-fluorophenyl)ethyl]amino}(3-pyridyl))carboxamide]
The pIC50 of the first is 1.05 log units higher: 7.68 for the first, 6.63 for the second.

Going from `O=C(NCc1cccc(Br)n1)c1ccc(-c2cn[nH]c2)nc1NCCc1cccc(F)c1` [N-[(6-bromo(2-pyridyl))methyl](2-{[2-(3-fluorophenyl)ethyl]amino}-6-pyrazol-4-yl(3-pyridyl))carboxamide] to `N#Cc1ccc(CNC(=O)c2ccc(-c3ccccc3)nc2NCCc2cccc(F)c2)cn1` [N-[(6-cyano(3-pyridyl))methyl](2-{[2-(3-fluorophenyl)ethyl]amino}-6-phenyl(3-pyridyl))carboxamide], the pIC50 falls from 6.93 to 5.90 (1.03 log units).

First: N#Cc1ccccc1-c1ccc(C(=O)NCc2ccc(Cl)nc2)c(NCCc2cccc(F)c2)n1 [N-[(6-chloro(3-pyridyl))methyl](6-(2-cyanophenyl)-2-{[2-(3-fluorophenyl)ethyl]amino}(3-pyridyl))carboxamide]
Second: N#Cc1ccccc1-c1ccc(C(=O)NCc2cccc(CNCCN)n2)c(NCCc2cccc(F)c2)n1 [N-[(6-{[(2-aminoethyl)amino]methyl}(2-pyridyl))methyl](6-(2-cyanophenyl)-2-{[2-(3-fluorophenyl)ethyl]amino}(3-pyridyl))carboxamide]
The pIC50 of the first is 1.97 log units lower: 5.75 for the first, 7.72 for the second. The second is the more potent here.

Going from `N#Cc1ccccc1-c1ccc(C(=O)NC[C@H]2CCCCN2)c(NCCc2cccc(F)c2)n1` [N-[((2R)(2-piperidyl))methyl](6-(2-cyanophenyl)-2-{[2-(3-fluorophenyl)ethyl]amino}(3-pyridyl))carboxamide] to `CN1CCCC[C@@H]1CNC(=O)c1ccc(-c2ccccc2C#N)nc1NCCc1cccc(F)c1` [N-[((2R)-1-methyl(2-piperidyl))methyl](6-(2-cyanophenyl)-2-{[2-(3-fluorophenyl)ethyl]amino}(3-pyridyl))carboxamide], the pIC50 rises from 5.94 to 6.31 (0.37 log units). The second is the more potent here.

First: CC(=O)N1CCCC[C@@H]1CNC(=O)c1ccc(-c2ccccc2C#N)nc1NCCc1cccc(F)c1 [N-[((2R)-1-acetyl(2-piperidyl))methyl](6-(2-cyanophenyl)-2-{[2-(3-fluorophenyl)ethyl]amino}(3-pyridyl))carboxamide]
Second: CC(=O)N1CCC[C@@H]1CNC(=O)c1ccc(-c2ccccc2C#N)nc1NCCc1cccc(F)c1 [N-[((2R)-1-acetylpyrrolidin-2-yl)methyl](6-(2-cyanophenyl)-2-{[2-(3-fluorophenyl)ethyl]amino}(3-pyridyl))carboxamide]
The pIC50 of the first is 1.35 log units lower: 5.57 for the first, 6.92 for the second. The second is the more potent here.

Compared with `CC(=O)N1CC[C@@H]1CNC(=O)c1ccc(-c2ccccc2C#N)nc1NCCc1cccc(F)c1` [N-[((2R)-1-acetylazetidin-2-yl)methyl](6-(2-cyanophenyl)-2-{[2-(3-fluorophenyl)ethyl]amino}(3-pyridyl))carboxamide], `CC(=O)N1CCNC[C@@H]1CNC(=O)c1ccc(-c2ccccc2C#N)nc1NCCc1cccc(F)c1` [N-[((2R)-1-acetylpiperazin-2-yl)methyl](6-(2-cyanophenyl)-2-{[2-(3-fluorophenyl)ethyl]amino}(3-pyridyl))carboxamide] is 2.24 log units lower in pIC50: 7.37 for the first, 5.13 for the second.

First: CN1CCNC[C@@H]1CNC(=O)c1ccc(-c2ccccc2C#N)nc1NCCc1cccc(F)c1 [N-[((2R)-1-methylpiperazin-2-yl)methyl](6-(2-cyanophenyl)-2-{[2-(3-fluorophenyl)ethyl]amino}(3-pyridyl))carboxamide]
Second: CN1CCC[C@@H]1CNC(=O)c1ccc(-c2ccccc2C#N)nc1NCCc1cccc(F)c1 [N-[((2R)-1-methylpyrrolidin-2-yl)methyl](6-(2-cyanophenyl)-2-{[2-(3-fluorophenyl)ethyl]amino}(3-pyridyl))carboxamide]
The pIC50 of the first is 1.87 log units lower: 4.80 for the first, 6.67 for the second.

Going from `CC(C)(C)OC(=O)NCC(=O)N1CC[C@@H]1CNC(=O)c1ccc(-c2cn[nH]c2)nc1NCCc1cccc(F)c1` [N-[((2R)-1-{2-[(tert-butoxy)carbonylamino]acetyl}azetidin-2-yl)methyl](2-{[2-(3-fluorophenyl)ethyl]amino}-6-pyrazol-4-yl(3-pyridyl))carboxamide] to `Cn1cc(-c2ccc(C(=O)NC[C@H]3CCCN3C(=O)CNC(=O)OC(C)(C)C)c(NCCc3cccc(F)c3)n2)cn1` [N-[((2R)-1-{2-[(tert-butoxy)carbonylamino]acetyl}pyrrolidin-2-yl)methyl](2-{[2-(3-fluorophenyl)ethyl]amino}-6-(1-methylpyrazol-4-yl)(3-pyridyl))carboxamide], the pIC50 falls from 5.52 to 5.26 (0.26 log units).

Molecule `Cn1cc(-c2nc(NCCc3cccc(F)c3)c(C(=O)NC[C@H]3CCN3C(=O)CNC(=O)OC(C)(C)C)cc2F)cn1` [N-[((2R)-1-{2-[(tert-butoxy)carbonylamino]acetyl}azetidin-2-yl)methyl](5-fluoro-2-{[2-(3-fluorophenyl)ethyl]amino}-6-(1-methylpyrazol-4-yl)(3-pyridyl))carboxamide] has a pIC50 of 6.36.
